Reference: ChEMBL document CHEMBL3120134, “A review of non-nucleoside anti-hepatitis B virus agents” (Eur J Med Chem, 2014)

What was measured:
[1] = test system: Hepatitis B virus; test: Antiviral activity against Hepatitis B virus; assay type: functional, organism-based
[2] = test system: Hepatitis B virus; test: Antiviral activity against Hepatitis B virus assessed as inhibition of Hepatitis B virus DNA replication; assay type: functional, organism-based
[3] = test system: Hepatitis B virus; test: Antiviral activity against Hepatitis B virus infected in human HepG2.2.15 cells assessed as decrease in HBV e antigen secretion at 200 ug/ml after 9 days by ELISA; assay type: functional; settings: HepG2 2.2.15, 216 h
[4] = test system: Duck hepatitis B virus; test: Antiviral activity against Duck Hepatitis B virus infected in duckling assessed as decrease in DHBV level in serum at 120 mg/kg dosed through liquid diet for 10 days administered started on day 7 post-infection; assay type: functional
[5] = test system: Hepatitis B virus; test: Antiviral activity against Hepatitis B virus infected in human HepG2.2.15 cells assessed as decrease in HBV surface antigen secretion at 200 ug/ml after 9 days by ELISA; assay type: functional; settings: HepG2 2.2.15, 216 h
[6] = test system: Hepatitis B virus; test: Antiviral activity against Hepatitis B virus infected in human HepG2.2.15 cells assessed as decrease in HBV surface antigen secretion; assay type: functional, organism-based, HepG2 2.2.15
[7] = test system: Hepatitis B virus; test: Antiviral activity against Hepatitis B virus infected in human HepG2.2.15 cells assessed as decrease in HBV e antigen secretion; assay type: functional, organism-based, HepG2 2.2.15
[8] = test system: Hepatitis B virus; test: Antiviral activity against Hepatitis B virus assessed as inhibition of virion production; assay type: functional, organism-based
[9] = test system: Hepatitis B virus; test: Antiviral activity against Hepatitis B virus infected in human Huh7 cells assessed as inhibition of HBV particles production; assay type: functional, organism-based; settings: Huh-7
[10] = test system: Hepatitis B virus; test: Antiviral activity against Hepatitis B virus infected in human HepG2.2.15 cells assessed as decrease in HBV DNA production; assay type: functional, organism-based; settings: HepG2 2.2.15
[11] = Selectivity index, ratio of cytotoxicity towards human HepG2.2.15 cells to IC50 for HBV DNA production; assay type: toxicity, cell-based; settings: read-out: Selectivity Index

With `O=C(Nc1ncc(Cl)s1)c1ccccc1O` the EC50 [1] was 120 nM.

`Cc1ccc(O)c(C(=O)Nc2ncc(Cl)s2)c1` showed an EC50 [1] of 120 nM.

`Cc1ccc(C(=O)Nc2ncc(Cl)s2)c(O)c1` gave an EC50 [1] of 120 nM.

Work on `O=C(Nc1ncc(Br)s1)c1ccccc1O` yielded an EC50 [1] of 120 nM.

For `NC(=O)c1cc2ccc3c(c2c(-c2ccc4c(c2)OCO4)c1C(=O)O)OCO3`, the EC50 [1] was 800 nM.

In the case of `CCOC(=O)c1c(C[S+]([O-])c2cccc(F)c2)n(C)c2cc(Br)c(O)c(CN3CCOCC3)c12` (stereo not drawn), the IC50 [1] is reported as < 60 µg/mL.

With `COC(=O)C1=C(C)NC(c2nccs2)=N[C@H]1c1ccc(F)cc1Cl` the IC50 [2] was 30 nM.

Work on `COC(=O)C1=C(C)NC(c2ncccc2F)=N[C@@H]1c1ccc(F)cc1Cl` yielded an IC50 [2] of 150 nM.

For `CC(C)(O)[C@@H]1CC[C@](C)([C@H]2[C@@H](O)C[C@@]3(C)[C@@H]4C[C@H](O[C@@H]5O[C@H](CO)[C@@H](O)[C@H](O)[C@H]5O)[C@H]5C(C)(C)[C@@H](O[C@@H]6OC[C@@H](O)[C@H](O)[C@H]6O)CC[C@@]56C[C@@]46CC[C@]23C)O1`, the inhibition at 200 µg/mL [3] was 23.3%, the inhibition in vivo at 120 mg/kg [4] was 64% and the inhibition at 200 µg/mL [5] was 31.8%.

For `COc1cc2c(cc1OC)-c1c(C)c3ccc4c(c3c[n+]1CC2)OCO4.[OH-]`, the “inhibition (INH)” value [6] was 50% and the “inhibition (INH)” value [7] was 40%.

For `COc1cc2c(cc1O)-c1c(C)c3ccc4c(c3c[n+]1CC2)OCO4.[OH-]`, the “inhibition (INH)” value [6] was 50% and the “inhibition (INH)” value [7] was 40%.

In the case of `COc1cc2c(cc1O)CC[n+]1cc3c4c(ccc3c(C)c1-2)OCO4.[OH-]`, the “inhibition (INH)” value [6] is reported as 50% and the “inhibition (INH)” value [7] is reported as 40%.

Molecule `COC(=O)c1nc(-c2csc([C@@H](NC(=O)c3cccs3)C(C)C)n2)oc1C` has an IC50 [2] of 76400 nM.

In the case of `CC(C)Cc1sc(-c2nccs2)nc1C(=O)O`, the IC50 [2] is reported as 60000 nM.

With `COC(=O)c1nc(-c2nccs2)sc1CC(C)C` the IC50 [2] was 2400 nM.

`CCOC(=O)c1nc(-c2nccs2)sc1CC(C)C` gave an IC50 [2] of 1100 nM.

In the case of `CCOC(=O)c1nc(-c2ncc(C)s2)sc1CC(C)C`, the IC50 [2] is reported as 140 nM.

Molecule `Cc1ccc(-c2nnc3sc(CN)cn23)cc1` has an IC50 [1] of 35000 nM.

In the case of `CC(=O)OC[C@H]1O[C@@H](Sc2nnc(-c3ccc(Cl)cc3)n2N)[C@H](OC(C)=O)[C@@H](OC(C)=O)[C@@H]1OC(C)=O`, the IC50 [1] is reported as 63000 nM.

Molecule `Nn1c(SC(c2ccccc2)c2ccccc2)nnc1-c1ccc(Cl)cc1` has an IC50 [1] of 40000 nM.

Work on `CCC(c1nnc(SCCN2CCN(c3ccccc3OC)CC2)o1)S(=O)(=O)c1ccccc1` (stereo not drawn) yielded an EC50 [8] of 1630 nM.

In the case of `Cc1cc(C)n2nc(S)nc2c1`, the IC50 [9] is reported as 120 nM.

For `CCOC(=O)c1c(C[S+]([O-])c2ccc(F)c(F)c2)n(C)c2cc(Br)c(O)c(Cn3ccnc3C)c12` (stereo not drawn), the IC50 [1] was < 60 µg/mL.

In the case of `CCOC(=O)c1c(C[S+]([O-])c2ccc(F)cc2)n(C)c2cc(Br)c(O)c(CN3CCOCC3)c12` (stereo not drawn), the IC50 [1] is reported as < 60 µg/mL.

In the case of `CCOC(=O)c1c(CS(=O)(=O)c2cccc(OC)c2)n(C)c2ccc(O)c(CN3CCCC3)c12`, the IC50 [1] is reported as < 60 µg/mL.

In the case of `CCOC(=O)c1c(CS(=O)(=O)c2ccc(C)cc2)n(C2CC2)c2ccc(O)c(Cn3ccnc3)c12`, the IC50 [1] is reported as < 60 µg/mL.

`CCOC(=O)c1cc2cc(OC)c(O)c(Cn3ccnc3)c2nc1C[S+]([O-])c1ccc(F)cc1` (stereo not drawn) gave an IC50 [10] of 3500 nM and a selectivity ratio [11] of 37.9.
